# US20260184689A1, “PIPERIDINE-SUBSTITUTED BENZOIC ACID COMPOUND, AND PHARMACEUTICAL COMPOSITION AND USE THEREOF” (SHANGHAI YISHENG BIOPHARMACEUTICAL COMPANY LIMITED, priority 2022, published 2026)
# System: PNH-like erythrocytes
# Assay: Alternative pathway inhibition assay of PNH-like erythrocyte
# Assay type: cell-based
# Conditions: 1 h, AET/anti-CD55 sensitized human erythrocytes, acidified normal human serum pH 6.4, 37° C. 60 min
# Excerpt: Principle: PNH, as an indication for complement inhibitors, was typically tested using the Ham test, which states that acidified serum was capable of activating the alternative pathway, leading to hemolysis of PNH erythrocytes, while normal erythrocytes remained unaffected. It was reported in the literature that AET could disrupt the complement regulatory proteins on the surface of normal human erythrocytes, resulting in PNH-like erythrocytes.
# Reagents and instrument: PBS buffer, normal human serum (NHS), Alsever's solution, microplate reader, MgCl2, EGTA, EDTA, HCl, normal human erythrocytes, AET; anti-CD-55 antibody (BRIC216; Sigma)
# PBS buffer: Potassium dihydrogen phosphate (KH2PO4): 0.24 g/L, disodium hydrogen phosphate (Na2HPO4): 1.44 g/L, sodium chloride (NaCl): 8 g/L, potassium chloride (KCl): 0.2 g/L, pH 7.4
# PBSE buffer: PBS, 10 mM EDTA; pH 7.4
# PBSMg buffer: PBS, 1 mM Mg++; pH 6.4
# 10× Mg-EGTA stock solution: 25 mM MgCl2, 80 mM EGTA; pH 6.4
# 10× EDTA stock solution: 100 mM EDTA; pH 6.4
# Method: The inhibition of alternative pathway-mediated erythrocyte lysis was evaluated using an in vitro model of PNH. Normal human erythrocytes were sensitized with 2-aminoethylisothiouronium bromide (AET) to inactivate complement regulatory proteins on the cell surface and induce a PNH-like phenotype.
# 2 mL of normal human erythrocytes were mixed with 2 mL of Alsever's solution, washed three times with PBS, and centrifuged at 2500×g, with the upper 10% of the erythrocytes being removed each time. The washed 1 mL erythrocytes were sensitized by incubation with 4 mL of 8% w/v AET (pH 8.0) at 37° C. for 10 min, followed by three additional washes with PBS. Subsequently, the concentration of erythrocytes in PBS (erythrocyte stock solution) was adjusted with PBS such that an absorbance of 1.5-2.0 at 412 nm (indicating hemoglobin release) was achieved upon dilution of 10 μL erythrocyte stock solution with 190 μL water.
# 1.5 mL of the erythrocyte stock solution was mixed with anti-CD55 antibody (BRIC216; Sigma/final concentration of 6.7 μg/mL) and incubated on ice for 30 min. After being washed once with PBS, the treated erythrocytes were resuspended in PBS-Mg to the initial volume of 1.5 mL. The following AP-mediated lysis assay was performed on this erythrocyte preparation with induced PNH phenotype.
# The normal human serum was acidified with 0.2 M HCl to pH 6.4, and supplemented with MgCl2 and EGTA to final concentrations of 2.5 and 8 mM, respectively. 80 μL of this serum mixture was mixed with 10 μL of PBS-Mg (negative blank) or 10 μL of samples at various concentrations. Normal human serum was acidified with 0.2 M HCl to pH 6.4, supplemented with EDTA to a final concentration of 10 mM, and 80 μL of this serum mixture was mixed with 10 μL of PBS-Mg (negative blank) as a blank positive control. The sample was incubated with serum on ice for 5 min, and then 10 μL of sensitized erythrocytes were added. The final serum concentration in the reaction mixture was approximately 64% v/v, incubated at 37° C. for 60 min, and the reaction was quenched by adding 50 μL of ice-cold PBS containing 10 mM EDTA. The remaining unlysed cells were centrifuged at 2500×g for 10 min, and 100 μL of the supernatant was transferred to a 96-well plate to measure its absorbance at 412 nm. The amount of hemoglobin released during erythrocyte lysis was thereby quantified. […] represented the relative lysis of PNH-like erythrocytes (expressed in %; set to 0% for the PC sample and 100% for the NC sample). The absorbance was measured using a microplate reader (Molecular Devices SpectraMax 3X). The IC50 value was calculated by applying nonlinear regression with GraphPad Prism 9.0 software from the percentage of hemolysis as a function of the test compound concentration.
row,Compound,IC50
1,"CCCC1CCN(C(=O)c2c(OC)cc(C)c3[nH]ccc23)C(c2ccc(C(=O)O)cc2)C1 (single isomer, unassigned) [Compound 159A]",50 to 250 nM
2,"CCO[C@H]1CCN(Nc2c(OC)cc(C)c3[nH]ccc23)[C@H](c2ccc(C(=O)O)cc2)C1 [Compound 11 of Example 75, 4-((2S,4S)-4-Ethoxy-1-((5-methoxy-7-methyl-1H-indol-4-yl)amino)piperidin-2-yl)benzoic acid]",100 to 300 nM
3,"CCCC1CCN(C(=O)c2c(OC)cc(C)c3[nH]ccc23)[C@H](c2ccc(C(=O)O)cc2)C1 (mixture of isomers) [Final product of Example 158, 4-((2S)-1-(5-Methoxy-7-methyl-1H-indole-4-carbonyl)-4-propylpiperidin-2-yl)benzoic acid]",50 to 250 nM
